Measured values published in US20100291592A1, “NOVEL MARKER FOR SENSITIVITY AGAINST SULFONAMIDE COMPOUND” (priority 2006, published 2010).

test system: cancer cell line resistant to E7070; assay: not given; settings: WO2006/030941 and WO2006/030947; cited from earlier work

Compound | Cross-resistance of E7070-resistant cancer cell line (antiproliferative activity)
O=C(NS(=O)(=O)c1ccc(Cl)cc1)c1ccc(Cl)cc1Cl [LY-ASAP, N-(2,4-dichlorobenzoyl)-4-chlorophenylsulfonamide] | cross-resistance
O=C(NS(=O)(=O)c1ccc(Br)s1)c1ccc(Cl)cc1Cl [LY573636, N-(2,4-dichlorobenzoyl)-5-bromothiophene-2-sulfonamide] | cross-resistance
O=C(Nc1ccc(Cl)cc1)NS(=O)(=O)c1ccc2c(c1)CCC2 [LY186641, N-[[(4-chlorophenyl)amino]carbonyl]-2,3-dihydro-1H-indene-5-sulfonamide] | cross-resistance
O=C(Nc1ccc(Cl)c(Cl)c1)NS(=O)(=O)c1ccc2c(c1)CCO2 [LY295501, N-[[(3,4-dichlorophenyl)amino]carbonyl]-2,3-dihydrobenzofuran-5-sulfonamide] | cross-resistance
Nc1ccc(S(=O)(=O)Nc2cnc3c(Cl)cccc3n2)cc1 [CQS, 2-sulfanylamide-5-chloroquinoxaline] | cross-resistance

test system: EGFR1; assay: EGFR1 expression level in cultured HCT116-C9 (mass spectrometry, 12C/13C-leucine labelling); format: cell-based, human; settings: HCT116-C9, 1 μM E7070, 24 hours, LC-MS/MS, treated/untreated
Method: First, RPMI-1640 (containing 10% FBS) supplemented with ^13C-labeled L-leucine (^13C-leucine, Cambridge Isotope Labs) and RPMI-1640 (containing 10% FBS) supplemented with non-isotope-labeled L-leucine (^12C-leucine) were prepared. Then, human colon cancer cell line HCT116-C9 was cultured in each medium through at least the fifth passage. HCT116-C9 was a subline separated from human colon cancer cell line HCT116 (obtained from ATCC) and known as a cell line highly sensitive to […] (Molecular Cancer Therapeutics, 2002, 1, 275-286). Thereafter, each cell was seeded in a 15-cm-diameter culture dish at a concentration of 1.0×10^7 cells/50 ml. Then, 24 hours later, 1 μM of […] was added to HCT116-C9 cultured in the ^12C-leucine-containing medium and nothing was added to HCTZ 16-C9 cultured in the ^13C-leucine-containing medium. These cells were continued culturing. Twenty-four hours later, the cells were washed twice with a phosphate buffer saline according to a routine procedure, added with 3 ml of M-PER (PIERCE) to solubilize the cells and then equal amounts of them were mixed. The cell lysates were dialyzed by a routine procedure to sublimate the solutions, and digested with trypsin, thereby obtaining peptide samples. The resulting peptide samples were analyzed with LC-MS/MS. […]

Compound | Peak intensity ratio (12C/13C) of EGFR1-derived peptide fragment
NS(=O)(=O)c1ccc(S(=O)(=O)Nc2cccc3c(Cl)c[nH]c23)cc1 [E7070, N-(3-chloro-1H-indole-7-yl)-1,4-benzenedisulfonamide] | 0.6-0.8
